Ends that are not written are not given here. Peptide text beside a SMILES is read from it. * marks the point of attachment. Biotin = O=C1N[C@H]2[C@H](CS[C@H]2CCCCC(=O)*)N1
What was measured:
Test in all cases: G' assay (10 uM PL peptide), results of TABLE 7 and TABLE 12
Assay type in all cases: binding
[1] = target: T1, PDZ protein (GST-PDZ fusion) (Homo sapiens, UniProt Q9P202); settings: PDZ KIAA1526, PDZ Domain 1
T1 construct: made in house; host or cells: E. coli (DH5alpha, BL21 or JM109)
T1 sequence (Q9P202 1-907): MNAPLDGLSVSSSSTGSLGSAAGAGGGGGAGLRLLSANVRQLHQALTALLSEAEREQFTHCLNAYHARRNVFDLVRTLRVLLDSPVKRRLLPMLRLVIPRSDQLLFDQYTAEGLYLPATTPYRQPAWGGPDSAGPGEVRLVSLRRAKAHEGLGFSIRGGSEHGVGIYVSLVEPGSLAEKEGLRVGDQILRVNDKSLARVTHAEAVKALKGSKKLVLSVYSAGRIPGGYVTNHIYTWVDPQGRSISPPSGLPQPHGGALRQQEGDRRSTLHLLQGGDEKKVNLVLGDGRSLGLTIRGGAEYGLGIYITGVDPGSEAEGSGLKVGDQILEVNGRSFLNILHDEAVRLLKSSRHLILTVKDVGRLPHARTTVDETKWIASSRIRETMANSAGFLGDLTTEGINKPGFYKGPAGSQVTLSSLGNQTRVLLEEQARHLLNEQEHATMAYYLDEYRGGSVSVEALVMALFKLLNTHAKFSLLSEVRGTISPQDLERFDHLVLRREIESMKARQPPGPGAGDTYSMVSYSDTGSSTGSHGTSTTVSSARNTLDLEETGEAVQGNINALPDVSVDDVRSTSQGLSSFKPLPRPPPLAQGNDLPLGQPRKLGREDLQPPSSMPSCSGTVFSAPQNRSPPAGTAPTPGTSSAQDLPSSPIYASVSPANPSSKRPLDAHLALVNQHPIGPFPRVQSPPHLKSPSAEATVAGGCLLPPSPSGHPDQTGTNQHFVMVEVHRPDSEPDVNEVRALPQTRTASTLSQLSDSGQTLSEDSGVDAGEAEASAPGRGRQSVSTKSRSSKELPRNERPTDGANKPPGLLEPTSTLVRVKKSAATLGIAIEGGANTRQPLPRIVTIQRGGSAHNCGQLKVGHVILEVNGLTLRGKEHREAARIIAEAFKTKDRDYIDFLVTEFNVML
In short: (§1)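 Binding classes derive from A450 nm of bound biotin-tagged PL peptide. A score of 5 needs A450 above 4 in more than two repeats.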

[2] = target: T2, PDZ protein (GST-PDZ fusion) (Homo sapiens, UniProt Q14160)
T2 construct: made in house; host or cells: E. coli (DH5alpha, BL21 or JM109)
In short: as §1

[3] = target: T3, PDZ protein (GST-PDZ fusion) (Homo sapiens, UniProt O14907); settings: PDZ TIP1, PDZ Domain 1
T3 construct: made in house; host or cells: E. coli (DH5alpha, BL21 or JM109)
T3 sequence (O14907 1-124): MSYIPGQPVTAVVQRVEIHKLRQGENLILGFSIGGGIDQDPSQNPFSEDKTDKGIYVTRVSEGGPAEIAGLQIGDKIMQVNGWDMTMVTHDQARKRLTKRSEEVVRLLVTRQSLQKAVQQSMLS
In short: as §1

[4] = target: T4, PDZ protein (GST-PDZ fusion) (Homo sapiens, UniProt P78352)
T4 construct: made in house; host or cells: E. coli (DH5alpha, BL21 or JM109)
In short: as §1

[5] = target: T5, PDZ protein (GST-PDZ fusion) (Homo sapiens, UniProt P57105); settings: PDZ Outer Membrane, PDZ Domain 1
T5 construct: made in house; host or cells: E. coli (DH5alpha, BL21 or JM109)
T5 sequence (P57105 1-145): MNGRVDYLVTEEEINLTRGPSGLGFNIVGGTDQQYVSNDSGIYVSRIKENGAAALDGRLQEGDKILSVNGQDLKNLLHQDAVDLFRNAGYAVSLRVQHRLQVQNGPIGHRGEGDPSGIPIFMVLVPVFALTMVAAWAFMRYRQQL
In short: as §1

[6] = target: T6, PDZ protein (GST-PDZ fusion) (Homo sapiens, UniProt Q12959)
T6 construct: made in house; host or cells: E. coli (DH5alpha, BL21 or JM109)
In short: as §1

[7] = target: T7, PDZ protein (GST-PDZ fusion) (Homo sapiens, UniProt O15018)
T7 construct: made in house; host or cells: E. coli (DH5alpha, BL21 or JM109)
In short: as §1

[8] = target: T8, PDZ protein (GST-PDZ fusion) (Homo sapiens, UniProt Q15700)
T8 construct: made in house; host or cells: E. coli (DH5alpha, BL21 or JM109)
In short: as §1

T8 sequence (Q15700 whole entry, the tested form may be a part): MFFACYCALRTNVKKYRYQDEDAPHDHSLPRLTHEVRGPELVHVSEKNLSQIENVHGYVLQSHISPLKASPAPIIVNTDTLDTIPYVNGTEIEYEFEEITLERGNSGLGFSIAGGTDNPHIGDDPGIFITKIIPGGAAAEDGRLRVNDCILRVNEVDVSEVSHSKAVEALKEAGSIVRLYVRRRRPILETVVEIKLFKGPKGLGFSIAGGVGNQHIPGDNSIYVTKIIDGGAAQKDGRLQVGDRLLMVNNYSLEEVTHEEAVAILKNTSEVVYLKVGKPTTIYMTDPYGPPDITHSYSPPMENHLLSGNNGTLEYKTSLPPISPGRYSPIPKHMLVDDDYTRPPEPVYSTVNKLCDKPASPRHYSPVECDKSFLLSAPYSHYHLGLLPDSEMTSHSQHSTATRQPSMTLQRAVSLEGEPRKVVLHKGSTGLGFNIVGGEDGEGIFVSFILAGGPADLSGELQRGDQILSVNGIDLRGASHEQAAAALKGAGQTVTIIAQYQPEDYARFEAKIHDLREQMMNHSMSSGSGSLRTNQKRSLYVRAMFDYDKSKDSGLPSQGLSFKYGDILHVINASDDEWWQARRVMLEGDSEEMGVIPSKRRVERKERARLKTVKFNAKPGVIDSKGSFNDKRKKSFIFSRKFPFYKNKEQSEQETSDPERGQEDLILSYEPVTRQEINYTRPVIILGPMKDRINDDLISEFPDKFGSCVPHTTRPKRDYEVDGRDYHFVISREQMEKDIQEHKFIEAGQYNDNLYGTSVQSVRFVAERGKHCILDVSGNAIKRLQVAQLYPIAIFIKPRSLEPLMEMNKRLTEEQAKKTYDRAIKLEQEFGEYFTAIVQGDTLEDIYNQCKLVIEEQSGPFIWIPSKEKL
T4 sequence (P78352 whole entry, the tested form may be a part): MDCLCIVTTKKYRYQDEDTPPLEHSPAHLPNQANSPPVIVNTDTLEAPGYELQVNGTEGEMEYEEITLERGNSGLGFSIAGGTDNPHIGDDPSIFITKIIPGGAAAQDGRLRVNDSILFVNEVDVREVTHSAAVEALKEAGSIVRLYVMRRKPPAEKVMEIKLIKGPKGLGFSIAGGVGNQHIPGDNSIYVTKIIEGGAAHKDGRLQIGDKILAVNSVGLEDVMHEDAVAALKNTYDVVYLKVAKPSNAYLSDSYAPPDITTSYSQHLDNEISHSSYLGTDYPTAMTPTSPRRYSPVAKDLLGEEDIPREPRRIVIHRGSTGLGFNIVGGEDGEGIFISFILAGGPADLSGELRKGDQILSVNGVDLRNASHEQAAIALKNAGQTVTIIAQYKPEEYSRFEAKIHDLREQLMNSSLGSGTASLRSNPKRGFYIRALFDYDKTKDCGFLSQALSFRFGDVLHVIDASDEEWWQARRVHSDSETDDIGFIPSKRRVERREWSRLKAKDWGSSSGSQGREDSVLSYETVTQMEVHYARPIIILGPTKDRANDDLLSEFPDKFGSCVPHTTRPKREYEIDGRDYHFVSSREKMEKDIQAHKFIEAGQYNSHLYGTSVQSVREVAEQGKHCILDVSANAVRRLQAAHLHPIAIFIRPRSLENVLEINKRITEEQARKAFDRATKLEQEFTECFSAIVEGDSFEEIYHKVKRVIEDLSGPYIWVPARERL
T7 sequence (O15018 whole entry, the tested form may be a part): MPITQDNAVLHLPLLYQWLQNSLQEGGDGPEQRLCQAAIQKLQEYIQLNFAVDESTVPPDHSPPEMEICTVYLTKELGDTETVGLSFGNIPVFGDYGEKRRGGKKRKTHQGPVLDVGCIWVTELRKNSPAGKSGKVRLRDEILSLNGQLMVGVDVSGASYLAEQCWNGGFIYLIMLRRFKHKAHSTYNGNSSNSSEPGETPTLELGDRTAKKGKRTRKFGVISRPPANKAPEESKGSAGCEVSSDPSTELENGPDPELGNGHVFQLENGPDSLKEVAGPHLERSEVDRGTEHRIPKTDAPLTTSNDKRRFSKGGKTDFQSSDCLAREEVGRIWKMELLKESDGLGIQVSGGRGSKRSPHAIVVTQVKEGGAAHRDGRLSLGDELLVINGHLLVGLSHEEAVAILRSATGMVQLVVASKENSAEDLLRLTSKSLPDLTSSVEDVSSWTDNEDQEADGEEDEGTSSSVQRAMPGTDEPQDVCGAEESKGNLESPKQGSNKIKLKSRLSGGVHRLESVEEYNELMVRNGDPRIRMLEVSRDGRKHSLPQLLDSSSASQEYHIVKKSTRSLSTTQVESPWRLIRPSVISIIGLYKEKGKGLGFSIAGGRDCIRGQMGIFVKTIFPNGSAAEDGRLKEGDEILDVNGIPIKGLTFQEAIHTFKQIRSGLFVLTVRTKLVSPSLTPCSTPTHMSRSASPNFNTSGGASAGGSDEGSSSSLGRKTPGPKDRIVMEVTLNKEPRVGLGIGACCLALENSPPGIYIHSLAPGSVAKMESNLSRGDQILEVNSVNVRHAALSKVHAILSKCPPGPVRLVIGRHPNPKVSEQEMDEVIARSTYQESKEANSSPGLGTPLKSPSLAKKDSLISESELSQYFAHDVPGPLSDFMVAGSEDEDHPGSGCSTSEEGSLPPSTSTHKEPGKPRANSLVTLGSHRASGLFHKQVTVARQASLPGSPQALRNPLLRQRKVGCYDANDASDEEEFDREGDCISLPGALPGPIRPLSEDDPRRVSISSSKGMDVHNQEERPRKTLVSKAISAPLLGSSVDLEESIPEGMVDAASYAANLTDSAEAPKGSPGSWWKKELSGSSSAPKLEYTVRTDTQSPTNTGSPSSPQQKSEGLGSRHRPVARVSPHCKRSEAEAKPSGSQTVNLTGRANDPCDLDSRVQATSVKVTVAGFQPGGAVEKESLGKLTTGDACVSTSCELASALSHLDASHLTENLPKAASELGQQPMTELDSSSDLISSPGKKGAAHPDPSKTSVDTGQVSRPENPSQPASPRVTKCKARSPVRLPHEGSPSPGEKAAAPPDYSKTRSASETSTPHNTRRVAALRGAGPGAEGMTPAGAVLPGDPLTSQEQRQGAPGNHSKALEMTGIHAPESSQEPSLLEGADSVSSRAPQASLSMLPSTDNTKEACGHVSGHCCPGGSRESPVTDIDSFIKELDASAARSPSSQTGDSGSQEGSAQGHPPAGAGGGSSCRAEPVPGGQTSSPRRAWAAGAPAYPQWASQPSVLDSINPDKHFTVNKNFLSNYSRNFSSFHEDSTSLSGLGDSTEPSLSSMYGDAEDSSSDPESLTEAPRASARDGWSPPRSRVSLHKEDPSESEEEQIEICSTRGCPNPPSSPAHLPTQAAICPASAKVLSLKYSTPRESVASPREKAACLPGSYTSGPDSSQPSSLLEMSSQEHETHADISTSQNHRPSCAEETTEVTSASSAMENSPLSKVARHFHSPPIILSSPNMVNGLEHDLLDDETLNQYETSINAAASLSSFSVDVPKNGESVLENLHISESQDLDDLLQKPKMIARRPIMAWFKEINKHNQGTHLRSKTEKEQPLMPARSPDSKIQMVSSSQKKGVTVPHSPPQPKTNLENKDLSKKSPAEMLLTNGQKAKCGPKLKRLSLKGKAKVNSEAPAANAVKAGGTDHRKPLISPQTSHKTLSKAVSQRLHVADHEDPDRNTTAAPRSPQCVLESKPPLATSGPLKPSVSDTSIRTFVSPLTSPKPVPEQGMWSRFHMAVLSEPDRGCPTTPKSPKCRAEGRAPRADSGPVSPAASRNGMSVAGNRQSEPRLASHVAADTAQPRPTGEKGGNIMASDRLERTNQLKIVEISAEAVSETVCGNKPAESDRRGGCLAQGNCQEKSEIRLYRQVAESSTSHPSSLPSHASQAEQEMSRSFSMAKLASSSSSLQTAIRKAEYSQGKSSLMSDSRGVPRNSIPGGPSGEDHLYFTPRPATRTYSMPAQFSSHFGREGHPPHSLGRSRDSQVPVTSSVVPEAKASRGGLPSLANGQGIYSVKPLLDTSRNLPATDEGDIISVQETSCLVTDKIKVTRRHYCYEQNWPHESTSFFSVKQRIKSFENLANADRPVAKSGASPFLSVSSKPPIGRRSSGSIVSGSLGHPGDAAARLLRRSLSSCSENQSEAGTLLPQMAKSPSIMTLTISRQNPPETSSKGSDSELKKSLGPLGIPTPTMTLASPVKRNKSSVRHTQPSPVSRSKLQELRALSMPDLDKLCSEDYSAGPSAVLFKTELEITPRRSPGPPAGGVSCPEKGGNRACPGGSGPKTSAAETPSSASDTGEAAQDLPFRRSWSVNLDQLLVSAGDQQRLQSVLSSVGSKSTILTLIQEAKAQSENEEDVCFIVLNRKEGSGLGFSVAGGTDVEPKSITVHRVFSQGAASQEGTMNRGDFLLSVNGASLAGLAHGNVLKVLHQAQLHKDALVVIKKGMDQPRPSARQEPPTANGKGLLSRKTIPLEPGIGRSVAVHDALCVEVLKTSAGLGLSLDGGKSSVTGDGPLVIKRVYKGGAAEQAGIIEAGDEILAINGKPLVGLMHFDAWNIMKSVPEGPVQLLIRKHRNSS

Question: Which Classification [1] does the source give for “LNETTETQRTLLNGDLQTSI (Biotin-LNETTETQRTLLNGDLQTSI) [SSTR2 (somatostatin recepor 2)]” here?
Answer: 1 (A450 nm 0-1)

Question: For `CC[C@H](C)[C@H](NC(=O)CNC(=O)[C@H](CO)NC(=O)[C@H](Cc1ccccc1)NC(=O)[C@@H](NC(=O)[C@H](CS)NC(=O)CNC(=O)CNC(=O)[C@H](C)NC(=O)[C@@H]1CCCN1C(=O)[C@@H](NC(=O)[C@@H]1CCCN1C(=O)CCCC[C@@H]1SC[C@@H]2NC(=O)N[C@@H]21)[C@@H](C)CC)[C@@H](C)O)C(=O)N[C@@H](Cc1ccccc1)C(=O)N1CCC[C@H]1C(=O)N[C@H](C(=O)N[C@@H](CC(C)C)C(=O)N[C@H](C(=O)N[C@@H](CO)C(=O)N1CCC[C@H]1C(=O)N[C@@H](CC(C)C)C(=O)O)[C@@H](C)O)[C@@H](C)O` [KIA 1481] (Biotin-PIPAGGCTFSGIFPTLTSPL-OH; C-terminus assumed), which Classification ([2]; PDZ KIAA0147, PDZ Domain 1) is on record?
Answer: 2 (A450 nm 1-2)

Question: What about the Classification [3] of the same molecule?
Answer: 2 (A450 nm 1-2)

Question: What about the Classification [1] of the same molecule?
Answer: 2 (A450 nm 1-2)

Question: What does the source list for `CC[C@H](C)[C@H](NC(=O)[C@H](CCCCN)NC(=O)[C@@H](NC(=O)[C@H](CO)NC(=O)[C@@H]1CCCN1C(=O)[C@H](Cc1ccccc1)NC(=O)[C@@H](NC(=O)[C@@H](NC(=O)[C@H](CCCNC(=N)N)NC(=O)[C@H](CCC(=O)O)NC(=O)[C@H](CC(C)C)NC(=O)[C@H](CC(C)C)NC(=O)[C@H](CC(C)C)NC(=O)[C@@H](NC(=O)CNC(=O)[C@@H](NC(=O)CCCC[C@@H]1SC[C@@H]2NC(=O)N[C@@H]21)C(C)C)[C@@H](C)O)C(C)C)[C@@H](C)CC)C(C)C)C(=O)N[C@@H](C)C(=O)N[C@H](C(=O)N[C@@H](CC(C)C)C(=O)N[C@H](C(=O)O)C(C)C)[C@@H](C)O` [Adenovirus E4 Type9]?
Answer: Classification ([4]; PDZ PSD95, PDZ Domain 1, 2, 3, PL peptide 10 uM): 5 (A450 nm of 4 more than 2× repeated); Classification ([4]; PDZ PSD95, PDZ Domain 1, Protein Optimal Conc 5): 4 (A450 nm 3-4); Classification ([5]; Protein Optimal Conc 5): 5 (A450 nm of 4 more than 2× repeated); Classification ([6]; PDZ DLG1, PDZ Domain 1, 2, PL peptide 10 uM): 5 (A450 nm of 4 more than 2× repeated); Classification ([6]; PDZ DLG1, PDZ Domain 1, Protein Optimal Conc 0.5): 4 (A450 nm 3-4); Classification ([6]; PDZ DLG1, PDZ Domain 2, Protein Optimal Conc 0.3): 5 (A450 nm of 4 more than 2× repeated); Classification ([7]; PDZ KIAA0300, PDZ Domain 1, PL peptide 10 uM): 1 (A450 nm 0-1); Classification ([8]; PDZ DLG2, PDZ Domain 2, Protein Optimal Conc 0.5): 5 (A450 nm of 4 more than 2× repeated)

Question: With “PPATPSPRLALPAHHNATRL (Biotin-PPATPSPRLALPAHHNATRL) [Na+/Pi cotransporter 2]” as the molecule, how does the Classification [5] read?
Answer: 1 (A450 nm 0-1)

Question: And the Classification [1]?
Answer: 1 (A450 nm 0-1)

Question: Which results are given for “A2AA_HUMAN (modified) (Biotin-HDFRRAFKKILARGDRKRIV; not fully specified)”?
Answer: Classification ([7]; PDZ AIPC, PDZ Domain 1): 2 (A450 nm 1-2); Classification [1]: 4 (A450 nm 3-4)

Question: What does the source list for “VHDAESSDEDGYDWGPATDL (Biotin-VHDAESSDEDGYDWGPATDL) [zona occludens 3 (ZO-3)]”?
Answer: Classification ([7]; PDZ AIPC, PDZ Domain 1): 1 (A450 nm 0-1); Classification [1]: 1 (A450 nm 0-1)

Question: Which Classification ([2]; PDZ KIAA0147, PDZ Domain 1) does the source give for `CC(C)C[C@H](NC(=O)[C@H](CC(=O)O)NC(=O)[C@H](CO)NC(=O)[C@H](CCC(=O)O)NC(=O)CNC(=O)[C@H](Cc1ccc(O)cc1)NC(=O)[C@H](CC(C)C)NC(=O)[C@H](C)NC(=O)[C@H](CO)NC(=O)[C@H](CO)NC(=O)[C@H](Cc1ccccc1)NC(=O)[C@H](C)NC(=O)[C@H](C)NC(=O)[C@H](Cc1ccc(O)cc1)NC(=O)[C@H](CC(=O)O)NC(=O)[C@H](CC(C)C)NC(=O)[C@H](C)NC(=O)CNC(=O)[C@@H]1CCCN1C(=O)[C@@H](NC(=O)CCCC[C@@H]1SC[C@@H]2NC(=O)N[C@@H]21)C(C)C)C(=O)O` [a-actinin 2] (Biotin-VPGALDYAAFSSALYGESDL-OH; C-terminus assumed) here?
Answer: 2 (A450 nm 1-2)

Question: And the Classification ([2]; PDZ KIAA0147, PDZ Domain 3)?
Answer: 3 (A450 nm 2-3)

Question: And the Classification [3]?
Answer: 5 (A450 nm of 4 more than 2× repeated)

Question: What about the Classification [5] of the same molecule?
Answer: 1 (A450 nm 0-1)

Question: And the Classification ([6]; PDZ DLG1, PDZ Domain 1, 2)?
Answer: 1 (A450 nm 0-1)

Question: What about the Classification ([6]; PDZ DLG1, PDZ Domain 2) of the same molecule?
Answer: 1 (A450 nm 0-1)

Question: And the Classification ([7]; PDZ AIPC, PDZ Domain 1)?
Answer: 2 (A450 nm 1-2)

Question: What about the Classification [1] of the same molecule?
Answer: 1 (A450 nm 0-1)

Question: For `CC[C@H](C)[C@H](NC(=O)[C@H](CCC(N)=O)NC(=O)CCCC[C@@H]1SC[C@@H]2NC(=O)N[C@@H]21)C(=O)N[C@@H](CO)C(=O)N1CCC[C@H]1C(=O)NCC(=O)NCC(=O)N[C@@H](CC(C)C)C(=O)N[C@@H](CCC(=O)O)C(=O)N1CCC[C@H]1C(=O)N1CCC[C@H]1C(=O)N[C@@H](CO)C(=O)N[C@@H](CCC(=O)O)C(=O)N[C@@H](CCCCN)C(=O)N[C@@H](Cc1c[nH]cn1)C(=O)N[C@@H](Cc1ccccc1)C(=O)N[C@@H](CCCNC(=N)N)C(=O)N[C@@H](CCC(=O)O)C(=O)N[C@H](C(=O)N[C@@H](CCC(=O)O)C(=O)N[C@H](C(=O)O)C(C)C)[C@@H](C)O` [Tax], which Classification ([4]; PDZ PSD95, PDZ Domain 1) is on record?
Answer: 5 (A450 nm of 4 more than 2× repeated)

Question: And the Classification ([4]; PDZ PSD95, PDZ Domain 2)?
Answer: 1 (A450 nm 0-1)

Question: What about the Classification ([4]; PDZ PSD95, PDZ Domain 3) of the same molecule?
Answer: 1 (A450 nm 0-1)

Question: What about the Classification ([2]; PDZ KIAA0147, PDZ Domain 1) of the same molecule?
Answer: 5 (A450 nm of 4 more than 2× repeated)

Question: What about the Classification ([2]; PDZ KIAA0147, PDZ Domain 2) of the same molecule?
Answer: 5 (A450 nm of 4 more than 2× repeated)

Question: What about the Classification ([2]; PDZ KIAA0147, PDZ Domain 3) of the same molecule?
Answer: 1 (A450 nm 0-1)

Question: And the Classification ([2]; PDZ KIAA0147, PDZ Domain 4)?
Answer: 1 (A450 nm 0-1)

Question: What about the Classification [5] of the same molecule?
Answer: 5 (A450 nm of 4 more than 2× repeated)

Question: What about the Classification ([6]; PDZ DLG1, PDZ Domain 1) of the same molecule?
Answer: 5 (A450 nm of 4 more than 2× repeated)

Question: And the Classification ([6]; PDZ DLG1, PDZ Domain 2)?
Answer: 5 (A450 nm of 4 more than 2× repeated)

Question: What about the Classification ([7]; PDZ AIPC, PDZ Domain 1) of the same molecule?
Answer: 1 (A450 nm 0-1)

Question: And the Classification ([8]; PDZ DLG2, PDZ Domain 1)?
Answer: 2 (A450 nm 1-2)

Question: And the Classification ([8]; PDZ DLG2, PDZ Domain 2)?
Answer: 5 (A450 nm of 4 more than 2× repeated)

Question: And the Classification [1]?
Answer: 3 (A450 nm 2-3)

Question: For `CC(C)C[C@H](NC(=O)[C@H](C)NC(=O)[C@@H](NC(=O)[C@@H](NC(=O)[C@H](Cc1c[nH]cn1)NC(=O)[C@H](CC(C)C)NC(=O)CNC(=O)[C@H](CCC(N)=O)NC(=O)CNC(=O)CNC(=O)[C@H](C)NC(=O)[C@H](C)NC(=O)[C@H](CCCNC(=N)N)NC(=O)[C@H](C)NC(=O)[C@H](CO)NC(=O)[C@H](CC(=O)O)NC(=O)[C@H](CC(=O)O)NC(=O)[C@H](Cc1c[nH]c2ccccc12)NC(=O)[C@H](C)NC(=O)CCCC[C@@H]1SC[C@@H]2NC(=O)N[C@@H]21)C(C)C)[C@@H](C)O)C(=O)O` [LPAP] (Biotin-AWDDSARAAGGQGLHVTAL-OH; C-terminus assumed), which Classification ([2]; PDZ KIAA0147, PDZ Domain 1) is on record?
Answer: 3 (A450 nm 2-3)

Question: What about the Classification [1] of the same molecule?
Answer: 1 (A450 nm 0-1)
